# Measured values taken from ChEMBL document CHEMBL4385613, “Discovery of Conformational Control Inhibitors Switching off the Activated c-KIT and Targeting a Broad Range of Clinically Relevant c-KIT Mutants” (J Med Chem, 2019).
# Active and inactive are the calls of the source. The calls are words filed in the database; no cut-off is given here.
# Key:
# [1] = Volume of distribution at steady state in ICR mouse at 2 mg/kg, iv administered as single dose measured up to 24 hrs by LC-MS/MS analysis; format: ADME, organism-based; conditions: in vivo, read-out: Vdss
# [2] = system: Mast/stem cell growth factor receptor Kit (Homo sapiens), P10721 [V560G,D816V]; assay: Inhibition of human c-KIT A loop exon 11/17 V560G/D816V double mutant at 100 nM using poly (Glu,Tyr) 4:1 as substrate in presence of 33P-gamma-ATP by hotspot kinase assay relative to control
# [3] = Plasma clearance in ICR mouse at 2 mg/kg, iv administered as single dose measured up to 24 hrs by LC-MS/MS analysis; format: ADME, organism-based
# [4] = Antiproliferative activity against human Detroit 551 assessed as reduction in cell viability after 72 hrs by MTS assay; format: cell-based; conditions: Detroit 551 cells
# [5] = Antiproliferative activity against human GIST62 cells assessed as reduction in cell viability by methylene blue staining based assay; format: functional
# GIST882 [6] = assay: Antiproliferative activity against human GIST882 cells harboring c-KIT exon 13 homozygous primary K642E mutant assessed as reduction in cell viability by MTS assay; format: functional
# [7] = biological target: Mast/stem cell growth factor receptor Kit (Homo sapiens, UniProt P10721, T670I); assay: Inhibition of human c-KIT ATP binding domain exon 14 T670I single mutant using poly (Glu,Tyr) 4:1 as substrate in presence of 33P-gamma-ATP by hotspot kinase assay
# GIST882 [8] = assay: Antiproliferative activity against human GIST882 cells harboring c-KIT exon 13 homozygous primary K642E mutant assessed as reduction in cell viability by methylene blue staining based assay; format: functional
# [9] = system: Mast/stem cell growth factor receptor Kit (Homo sapiens), P10721 [D820E]; conditions: at 100 nM
# Description: Inhibition of human c-KIT A loop exon 17 D820E single mutant at 100 nM using poly (Glu,Tyr) 4:1 as substrate in presence of 33P-gamma-ATP by hotspot kinase assay relative to control
# [10] = biological target: Mast/stem cell growth factor receptor Kit (Homo sapiens, UniProt P10721); assay: Inhibition of ATP-activated recombinant human N-terminal 6x-His-tagged c-KIT (547 to 935 residues)/(694 to 753 residues deletion) expressed in baculovirus infected Sf9 insect cells assessed as decrease in poly (Glu,Tyr) 4:1 phosphorylation incubated for 30 mins followed by ATP addition and measured after 30 mins by Kinase Glo based luminescence assay
# [11] = system: Mast/stem cell growth factor receptor Kit (Homo sapiens), P10721 [T670I]; assay: Inhibition of human c-KIT ATP binding domain exon 14 T670I single mutant at 10 nM using poly (Glu,Tyr) 4:1 as substrate in presence of 33P-gamma-ATP by hotspot kinase assay relative to control
# [12] = system: Mast/stem cell growth factor receptor Kit (Homo sapiens), P10721 [V560G,D816V]; assay: Inhibition of human c-KIT A loop exon 11/17 V560G/D816V double mutant at 10 nM using poly (Glu,Tyr) 4:1 as substrate in presence of 33P-gamma-ATP by hotspot kinase assay relative to control
# [13] = system: Mast/stem cell growth factor receptor Kit (Homo sapiens), P10721 [K642E]; assay: Inhibition of human c-KIT ATP binding domain exon 13 K642E single mutant at 100 nM using poly (Glu,Tyr) 4:1 as substrate in presence of 33P-gamma-ATP by hotspot kinase assay relative to control
# Mus musculus [14] = assay: Decrease in c-KIT phosphorylation in po dosed NOD-SCID mouse xenografted with human GIST430 cells harboring c-KIT exon 11 primary in-frame V560-L576 deletion mutant and exon 13 heterozygous secondary missense V654A mutant measured after 8 hrs by immunoblotting method; format: functional, organism-based
# [15] = system: Mast/stem cell growth factor receptor Kit (Homo sapiens), P10721 [D820Y]; conditions: at 10 nM
# Description: Inhibition of human c-KIT A loop exon 17 D820Y single mutant at 10 nM using poly (Glu,Tyr) 4:1 as substrate in presence of 33P-gamma-ATP by hotspot kinase assay relative to control
# GIST430 [16] = assay: Antitumor activity against human GIST430 cells harboring c-KIT exon 11 primary in-frame V560-L576 deletion mutant and exon 13 heterozygous secondary missense V654A mutant xenografted in NOD-SCID mouse assessed as reduction in tumor size at 25, po administered for 2 weeks with 2 days rest after day 5 and measured thrice per week up to 14 days during compound dosing relative to control; format: functional; set-up: scale not given: the % may be the effect or the level left
# [17] = system: Mast/stem cell growth factor receptor Kit (Homo sapiens), P10721 [K642E]; assay: Inhibition of human c-KIT ATP binding domain exon 13 K642E single mutant at 10 nM using poly (Glu,Tyr) 4:1 as substrate in presence of 33P-gamma-ATP by hotspot kinase assay relative to control
# GIST430 [18] = assay: Antiproliferative activity against human GIST430 cells harboring c-KIT exon 11 primary in-frame V560-L576 deletion mutant and exon 13 heterozygous secondary missense V654A mutant assessed as reduction in cell viability by methylene blue staining based assay; format: functional
# [19] = Antiproliferative activity against human GIST48B cells assessed as reduction in cell viability by methylene blue staining based assay; format: functional
# [20] = system: Mast/stem cell growth factor receptor Kit (Homo sapiens), P10721 [UNDEFINED MUTATION]; assay: Inhibition of c-KIT V560-L576 deletion/V654A double mutant phosphorylation in human GIST430 cells assessed as decrease in phosphorylation of MEK at 10 to 100 nM measured after 24 to 72 hrs by Western blot analysis; format: cell-based
# [21] = biological target: Mast/stem cell growth factor receptor Kit (Homo sapiens, UniProt P10721, D816V/V560G); assay: Inhibition of human c-KIT A loop exon 11/17 V560G/D816V double mutant using poly (Glu,Tyr) 4:1 as substrate in presence of 33P-gamma-ATP by hotspot kinase assay
# Mus musculus [22] = assay: Decrease in c-KIT phosphorylation in NOD-SCID mouse xenografted with human GIST430 cells harboring c-KIT exon 11 primary in-frame V560-L576 deletion mutant and exon 13 heterozygous secondary missense V654A mutant at 20 mg/kg, po measured after 8 hrs by immunoblotting analysis relative to control; format: functional
# GISTT1 = assay: Antiproliferative activity against human GISTT1 cells harboring heterozygous V560-Y578 deletion mutant assessed as reduction in cell viability by MTS assay; format: functional
# [23] = biological target: Mast/stem cell growth factor receptor Kit (Homo sapiens, UniProt P10721, N822K/V560G); assay: Inhibition of human c-KIT A loop exon 11/17 V560G/N822K double mutant using poly (Glu,Tyr) 4:1 as substrate in presence of 33P-gamma-ATP by hotspot kinase assay
# [24] = system: Mast/stem cell growth factor receptor Kit (Homo sapiens), P10721 [T670I]; assay: Inhibition of human c-KIT ATP binding domain exon 14 T670I single mutant at 100 nM using poly (Glu,Tyr) 4:1 as substrate in presence of 33P-gamma-ATP by hotspot kinase assay relative to control
# A549 = assay: Antiproliferative activity against human A549 assessed as reduction in cell viability after 72 hrs by MTS assay; format: functional; conditions: A549, 72 h
# Mus musculus [25] = assay: Decrease in c-KIT phosphorylation in NOD-SCID mouse xenografted with human GIST430 cells harboring c-KIT exon 11 primary in-frame V560-L576 deletion mutant and exon 13 heterozygous secondary missense V654A mutant at 80 mg/kg, po measured after 8 hrs by immunoblotting analysis relative to control; format: functional
# GIST48 = assay: Antiproliferative activity against human GIST48 cells harboring c-KIT exon 11 homozygous primary missense V560D mutant and exon 17 heterozygous secondary D820A mutant assessed as reduction in cell viability by methylene blue staining based assay; format: functional
# PC-3 = assay: Antiproliferative activity against human PC3 assessed as reduction in cell viability after 72 hrs by MTS assay; format: functional; conditions: PC-3, 72 h
# Sequence of Mast/stem cell growth factor receptor Kit (Homo sapiens), P10721 [V560G,D816V] (P10721 whole entry V560G/D816V, the tested form may be a part): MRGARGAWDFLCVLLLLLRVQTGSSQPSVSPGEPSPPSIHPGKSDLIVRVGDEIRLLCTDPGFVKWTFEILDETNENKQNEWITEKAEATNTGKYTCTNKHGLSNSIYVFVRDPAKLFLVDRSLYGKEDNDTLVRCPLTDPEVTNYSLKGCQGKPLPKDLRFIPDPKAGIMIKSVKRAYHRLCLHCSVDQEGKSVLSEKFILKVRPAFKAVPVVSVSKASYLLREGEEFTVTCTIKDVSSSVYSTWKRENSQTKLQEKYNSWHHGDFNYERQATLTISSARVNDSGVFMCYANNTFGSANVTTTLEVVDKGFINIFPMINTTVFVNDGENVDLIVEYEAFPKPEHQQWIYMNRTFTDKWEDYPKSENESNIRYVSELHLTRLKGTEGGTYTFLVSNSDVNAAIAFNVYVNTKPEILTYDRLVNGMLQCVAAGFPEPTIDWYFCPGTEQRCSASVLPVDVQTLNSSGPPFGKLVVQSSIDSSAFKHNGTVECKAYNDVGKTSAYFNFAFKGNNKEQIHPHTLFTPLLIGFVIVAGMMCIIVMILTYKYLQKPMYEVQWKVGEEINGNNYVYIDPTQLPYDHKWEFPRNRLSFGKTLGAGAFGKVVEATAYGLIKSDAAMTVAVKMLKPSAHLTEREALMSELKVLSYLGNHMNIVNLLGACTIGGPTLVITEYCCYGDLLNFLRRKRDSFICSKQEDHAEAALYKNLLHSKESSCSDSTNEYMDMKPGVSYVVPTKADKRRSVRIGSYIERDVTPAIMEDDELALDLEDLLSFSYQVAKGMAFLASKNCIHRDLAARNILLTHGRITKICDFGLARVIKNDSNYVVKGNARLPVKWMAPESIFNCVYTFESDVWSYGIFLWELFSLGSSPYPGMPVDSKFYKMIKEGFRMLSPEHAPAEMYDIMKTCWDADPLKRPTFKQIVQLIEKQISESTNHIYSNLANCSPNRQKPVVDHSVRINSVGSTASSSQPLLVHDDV
# Sequence of Mast/stem cell growth factor receptor Kit (Homo sapiens), P10721 [K642E] (P10721 whole entry K642E, the tested form may be a part): as the sequence (P10721 whole entry V560G/D816V, the tested form may be a part) above, with G560V, K642E, V816D counted along it
# Sequence of Mast/stem cell growth factor receptor Kit (Homo sapiens), P10721 [T670I] (P10721 whole entry T670I, the tested form may be a part): as the sequence (P10721 whole entry V560G/D816V, the tested form may be a part) above, with G560V, T670I, V816D counted along it
# Sequence of Mast/stem cell growth factor receptor Kit (Homo sapiens, UniProt P10721, D816V/V560G) (P10721 26-976 V560G/D816V limits assumed): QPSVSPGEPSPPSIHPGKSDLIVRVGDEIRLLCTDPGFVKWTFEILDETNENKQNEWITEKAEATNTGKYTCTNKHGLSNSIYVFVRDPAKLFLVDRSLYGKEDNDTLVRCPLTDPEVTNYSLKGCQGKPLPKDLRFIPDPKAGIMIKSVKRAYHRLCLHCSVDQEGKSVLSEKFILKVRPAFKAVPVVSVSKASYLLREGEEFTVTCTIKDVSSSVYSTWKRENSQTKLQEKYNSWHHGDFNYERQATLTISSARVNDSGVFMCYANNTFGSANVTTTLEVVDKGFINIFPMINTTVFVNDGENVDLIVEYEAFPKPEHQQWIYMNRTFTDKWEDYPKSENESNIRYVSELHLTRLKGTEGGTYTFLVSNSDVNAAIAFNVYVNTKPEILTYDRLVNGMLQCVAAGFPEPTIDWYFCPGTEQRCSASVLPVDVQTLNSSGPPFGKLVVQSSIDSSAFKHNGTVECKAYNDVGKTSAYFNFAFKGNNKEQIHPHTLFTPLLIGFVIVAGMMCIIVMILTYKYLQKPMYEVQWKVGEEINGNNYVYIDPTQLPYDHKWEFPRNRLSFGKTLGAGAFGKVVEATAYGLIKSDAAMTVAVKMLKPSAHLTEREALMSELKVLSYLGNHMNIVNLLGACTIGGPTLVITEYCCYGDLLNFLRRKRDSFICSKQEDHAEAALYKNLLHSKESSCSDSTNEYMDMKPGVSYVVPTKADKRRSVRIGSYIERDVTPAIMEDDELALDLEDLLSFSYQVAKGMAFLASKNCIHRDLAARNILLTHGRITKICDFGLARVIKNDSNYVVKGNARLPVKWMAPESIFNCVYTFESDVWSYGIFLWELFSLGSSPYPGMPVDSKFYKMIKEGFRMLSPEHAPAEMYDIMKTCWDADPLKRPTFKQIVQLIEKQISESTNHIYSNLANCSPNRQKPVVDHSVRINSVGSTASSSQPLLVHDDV
# Sequence of Mast/stem cell growth factor receptor Kit (Homo sapiens), P10721 [D820E] (P10721 whole entry D820E, the tested form may be a part): as the sequence (P10721 whole entry V560G/D816V, the tested form may be a part) above, with G560V, V816D, D820E counted along it
# Sequence of Mast/stem cell growth factor receptor Kit (Homo sapiens), P10721 [UNDEFINED MUTATION] (P10721 whole entry, looked up, stated change not applied): as the sequence (P10721 whole entry V560G/D816V, the tested form may be a part) above, with G560V, V816D counted along it
# Sequence of Mast/stem cell growth factor receptor Kit (Homo sapiens), P10721 [D820Y] (P10721 whole entry D820Y): as the sequence (P10721 whole entry V560G/D816V, the tested form may be a part) above, with G560V, V816D, D820Y counted along it
# Sequence of Mast/stem cell growth factor receptor Kit (Homo sapiens, UniProt P10721, N822K/V560G) (P10721 26-976 V560G/N822K limits assumed): as the sequence (P10721 26-976 V560G/D816V limits assumed) above, with V791D, N797K counted along it
# Sequence of Mast/stem cell growth factor receptor Kit (Homo sapiens, UniProt P10721, T670I) (P10721 26-976 T670I limits assumed): as the sequence (P10721 26-976 V560G/D816V limits assumed) above, with G535V, T645I, V791D counted along it
structure (smiles),measurement,setting,value
CCc1cc(NC(=O)Nc2ccc(-c3cnc(Nc4cc(N5CCN(CC)CC5)ncn4)s3)cc2)no1,Vd,[1],7.1 L/kg
same,inhibition,[2],63%
same,clearance,[3],20.2 mL/min/kg
same,GI50 at 72 h,[4],> 10000 nM
same,GI50,[5],> 100 nM
same,GI50,GIST882 [6],3 nM
same,IC50,[7],1.66 nM
same,GI50,GIST882 [8],3 nM
same,inhibition,[9],100%
same,IC50,[10],92 nM
same,inhibition,[11],55%
same,inhibition,[12],22%
same,inhibition,[13],99%
same,Activity,Mus musculus [14],Dose-dependent effect
same,inhibition,[15],99%
same,Activity,GIST430 [16],59%
same,inhibition,[17],82%
same,GI50,GIST430 [18],1 nM
same,GI50,[19],> 100 nM
same,inhibition,[20],Active
same,IC50,[21],9.27 nM
same,inhibition in vivo at 20 mg/kg,Mus musculus [22],85%
same,GI50,GISTT1,2.2 nM
same,IC50,[23],0.18 nM
same,inhibition,[24],83%
same,GI50,A549,14600 nM
same,inhibition in vivo at 80 mg/kg,Mus musculus [25],95.9%
same,GI50,GIST48,2 nM
same,GI50,PC-3,> 20000 nM
